Measured values from PMC12563652 (International Journal of Molecular Sciences, 2025).

How the values were obtained:
human TAAR1 = biological target: T1, human TAAR1 (Homo sapiens, UniProt Q96RJ0); experiment: TAAR1 antagonist activity, Hit Hunter cAMP assay; assay type: cell-based; details: n.a. = no activity at 10–5 M; read-out: TAAR1 Ant EC50
T1 sequence (Q96RJ0 1-339): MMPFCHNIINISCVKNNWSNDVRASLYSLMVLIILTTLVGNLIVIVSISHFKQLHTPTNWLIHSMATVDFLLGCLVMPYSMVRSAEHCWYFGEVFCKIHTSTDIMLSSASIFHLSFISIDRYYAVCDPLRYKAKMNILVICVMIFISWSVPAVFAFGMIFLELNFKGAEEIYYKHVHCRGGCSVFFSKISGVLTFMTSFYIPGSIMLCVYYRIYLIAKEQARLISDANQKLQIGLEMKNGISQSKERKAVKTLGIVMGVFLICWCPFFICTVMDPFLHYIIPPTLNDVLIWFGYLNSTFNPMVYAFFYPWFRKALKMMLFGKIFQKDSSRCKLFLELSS

HepG2 cells = experiment: Glucose consumption (Amplex Red assay) in HepG2 cells; assay type: cell-based, human; details: 10 µM; relative to vehicle-treated cells
Procedure: The HepG2 human hepatocellular carcinoma cell line (ATCC® HB-8065™) was cultured in DMEM supplemented with 10% FBS, 100 µg/mL streptomycin, and 100 IU/mL penicillin at 37 °C in 5% CO2. Cells were seeded in 96-well plates at a density of 10,000 cells/well and used for experiments 24 h after plating.
Stock solutions of test compounds were prepared at a concentration of 10 mM in dimethyl sulfoxide (DMSO). At least 1 mg of each substance was carefully measured and mixed with the right amount of DMSO. A series of dilutions were made in DMSO and then further diluted in phosphate-buffered saline before being introduced into the cell culture medium. Precipitation or opalescence was assessed prior to application.
The glucose uptake was measured with the Amplex® Red Glucose/Glucose Oxidase Assay Kit from Thermo Fisher Scientific, following the guidelines provided by the maker. Cell culture supernatants were collected and incubated with a reaction mix containing 100 μM Amplex® Red reagent, 0.2 U/mL horseradish peroxidase (HRP), and 1 U/mL glucose oxidase at room temperature for 30 min in the dark. Fluorescence was measured at 530 nm excitation and 590 nm emission using the POLARstar Omega plate reader (BMG Labtech).

C57BL/6 mice = experiment: Inhibition of gastric emptying (mouse model, phenol red); assay type: in vivo; details: 5 mg/kg b.w. alone
Procedure: Fifty male C57BL/6 mice (22–27 g) were housed in standard cages while maintaining a 12:12-h light/dark cycle, with food and water available ad libitum. The experimental procedures were performed from 10:00 a.m. to 14:00 p.m.
The experiment was conducted according to Miyasaka et al. and Kotańska et al., with some minor modifications. Mice were subjected to a 20 h food deprivation and a 2 h water deprivation prior to testing. The animals received a vehicle (0.25 mL/mouse) alone or along with various compounds: JP-14 (10 mg/kg b. w.), RT (5 mg/kg body weight), metformin (100 mg/kg b. w.), or loperamide (reference compound; 10 mg/kg b. w.) via gastric gavage. Following a 45 min interval, phenol red (0.5 mL, 0.05% w/v) combined with glucose (1 g/kg body weight) was administered through the same route. Additionally, each group received an intraperitoneal injection of heparin (2500 U/mouse) 20 min prior to the collection of stomach contents. Seven mice treated with the vehicle were sacrificed immediately after the phenol red administration to serve as a standard control (representing 100% phenol red in the stomach at 0 min), establishing a baseline for maximum absorbance (100%). The leftover mice were sacrificed 30 min later. The stomachs were removed and homogenized using an OMNI homogenizer (OMNI International Company, Kennesaw, GA, USA), with 10 mL of 0.1 N NaOH. To 5 mL of homogenate, 0.5 mL of 20% w/v solution of trichloroacetic acid was incorporated to precipitate the proteins. Subsequently, the samples were centrifuged at 600× g for 15 min at a temperature of 20 °C, and 0.25 mL of supernatant was mixed with 1 mL of 0.5 N NaOH to achieve maximum color intensity. The concentration of phenol red was measured using spectrophotometry, with absorbance evaluated at a wavelength of 560 nm (MuLTISKAN.GO, Thermo Fisher Scientific Inc., Waltham, MA USA). For each mouse, the percentage of gastric emptying (GE %) was calculated using the following equation:(1) GE%=(Ac0−Ab)/(Ac0−Ac30)×100% where: Ac0 is the absorbance of the control gastric sample collected immediately after dye administration, and Ac30 is the absorbance of the control gastric sample collected 30 min after dye administration, i.e., Ac0–Ac30 = 100% gastric emptying.

[1] = test system: platelet aggregation in rat whole blood; experiment: In vitro collagen-induced platelet aggregation in rat whole blood (impedance aggregometry); assay type: cell-based; details: 100 µM, collagen 1.6 µg/mL
Procedure: In vitro platelet aggregation assays were conducted using freshly collected whole blood from rats, utilizing the Multiplate platelet function analyzer (Roche Diagnostics, Mannheim, Germany)—a five-channel device that measures electrical impedance, following methods described previously. Upon stimulation, platelets adhere to and aggregate on dual metal sensors within the test cuvette, causing an increase in electrical resistance, which corresponds to the number of platelets attached to the electrodes.
Blood was collected from the carotid artery of the rat into tubes coated with hirudin (S-Monovette, Sarstedt, Germany). A volume of 300 μL of the anticoagulated blood was mixed with 300 μL of prewarmed isotonic saline that contained the test compound or a vehicle control (0.1% DMSO) and incubated at 37 °C for 3 min under continuous stirring. Aggregation was triggered by adding collagen (final concentration: 1.6 µg/mL). Platelet activity was monitored for 6 min. Multiplate V2.04 software calculated the area under the curve (AUC) for each measurement to determine average platelet response.

**Q.** Which results are given for N#Cc1c(C(F)(F)F)cc(-c2ccc(Cl)cc2)nc1SCC(=O)Nc1ncccn1 [RTI-7470-44]?
**A.** EC50 (human TAAR1): 168 ± 50.7 nM; increase in glucose consumption (uptake) (HepG2 cells): no significant changes; effect on gastric emptying (C57BL/6 mice): did not affect emptying; reduction of collagen-induced platelet aggregation [1]: 41.75%
